Laboratory results reported in patent US4292317A, “1,4-Dihydro-quinoline-3-carboxylic acid derivatives, process for their preparation and compositions containing them” (Laboratorie Roger Bellon, priority 1977, dated 1981).
In brackets after ≈: the same amount, converted by molar mass.

What was measured:
Assay type in all cases: cell-based
Ps. aeruginosa A.22 = assay: M.I.C. in vitro, nutrient agar dilution; conditions: Pseudomonas aeruginosa, 18 h; Table III; Ps. aeruginosa A.22; read-out: M.I.C.
Protocol: (§1) After sterilisation at 120° C., the pH was 6.8.
(§2) The minimum inhibitory concentrations (M.I.C.) were determined by dilution of the test compounds in this mixture, the concentration ranging from 0.05 to 100 μg/cm^3 in a geometric progression with a factor of 2.
(§3) The inoculation of the dishes was carried out by means of a multiple inoculator with 10^-3 dilutions of 18 hour old broth cultures.
(§4) The dishes were placed in an oven at 37° C. and the readings were taken afer an incubation time of 18 hours. The M.I.C. was taken as the lowest concentration which inhibited a culture.

Esch. coli 54.127 O.M.S. = assay: M.I.C. in vitro, nutrient agar dilution; conditions: Escherichia coli, 18 h; Table III; Esch. coli 54.127 O.M.S.; read-out: M.I.C.
Protocol: as §1, §2, §3, §4

B. subtilis = assay: M.I.C. in vitro, nutrient agar dilution; conditions: Bacillus subtilis, 18 h; Table III; B. Subtilis; read-out: M.I.C.
Protocol: as §1, §2, §3, §4

Pr. morganii A.236 = assay: M.I.C. in vitro, nutrient agar dilution; conditions: Morganella morganii, 18 h; Table III; Pr. morganii A. 236; read-out: M.I.C.
Protocol: as §1, §2, §3, §4

Strepto D.M. 19 = assay: M.I.C. in vitro, nutrient agar dilution; conditions: 18 h; Table III; Strepto D.M. 19; read-out: M.I.C.
Protocol: as §1, §2, §3, §4

Arizona 6.211 = assay: M.I.C. in vitro, nutrient agar dilution; conditions: 18 h; Table III; Arizona 6.211; read-out: M.I.C.
Protocol: as §1, §2, §3, §4

Klebs. pneum. 10.031 = assay: M.I.C. in vitro, nutrient agar dilution; conditions: 18 h; Table III; Klebs. pneum. 10.031; read-out: M.I.C.
Protocol: as §1, §2, §3, §4

Pr. mirabilis Nig = assay: M.I.C. in vitro, nutrient agar dilution; conditions: Proteus mirabilis, 18 h; Table III; Pr. mirabilis Nig; read-out: M.I.C.
Protocol: as §1, §2, §3, §4

S. enteritidis Danysz = assay: M.I.C. in vitro, nutrient agar dilution; conditions: Salmonella enterica, 18 h; Table III; S. enteritidis Danysz; read-out: M.I.C.
Protocol: as §1, §2, §3, §4

S. oranienburg 1066 = assay: M.I.C. in vitro, nutrient agar dilution; conditions: Salmonella enterica, 18 h; Table III; S. oranienburg 1066; read-out: M.I.C.
Protocol: as §1, §2, §3, §4

Sh. sonnei I.P.S. = assay: M.I.C. in vitro, nutrient agar dilution; conditions: Shigella sonnei, 18 h; Table III; Sh. sonnei I.P.S.; read-out: M.I.C.
Protocol: as §1, §2, §3, §4

Serratia = assay: M.I.C. in vitro, nutrient agar dilution; conditions: 18 h, Table III, read-out: M.I.C.
Protocol: as §1, §2, §3, §4

Esch. coli 95 I.S.M. = assay: M.I.C. in vitro, nutrient agar dilution; conditions: Escherichia coli, 18 h; Table III; Esch. coli 95 I.S.M.; read-out: M.I.C.
Protocol: as §1, §2, §3, §4

Esch. coli 111 B4 = assay: M.I.C. in vitro, nutrient agar dilution; conditions: Escherichia coli, 18 h; Table III; Esch. coli 111 B4
Protocol: as §1, §2, §3, §4

Ps. aeruginosa 72.345 = assay: M.I.C. in vitro, nutrient agar dilution; conditions: Pseudomonas aeruginosa, 18 h; Table III; Pd. aeruginosa 72.345; read-out: M.I.C.
Protocol: as §1, §2, §3, §4

Pr. vulgaris 12-53 = assay: M.I.C. in vitro, nutrient agar dilution; conditions: Proteus vulgaris, 1253, 18 h; Table III; Pr. vulgaris 12-53; read-out: M.I.C.
Protocol: as §1, §2, §3, §4

Staph. 9.144 = assay: M.I.C. in vitro, nutrient agar dilution; conditions: 18 h; Table III; Staph. 9.144; read-out: M.I.C.
Protocol: as §1, §2, §3, §4

Staph. 209 P = assay: M.I.C. in vitro, nutrient agar dilution; conditions: 18 h; Table III; Staph. 209 P; read-out: M.I.C.
Protocol: as §1, §2, §3, §4

Providentia 0223 = assay: M.I.C. in vitro, nutrient agar dilution; conditions: 18 h; Table III; Providentia 0223; read-out: M.I.C.
Protocol: as §1, §2, §3, §4

Bord. bronchis. 4.617 = assay: M.I.C. in vitro, nutrient agar dilution; conditions: 18 h; Table III; Bord. bronchis. 4.617; read-out: M.I.C.
Protocol: as §1, §2, §3, §4

Strepto A 561 = assay: M.I.C. in vitro, nutrient agar dilution; conditions: 18 h; Table III; Strepto A 561
Protocol: as §1, §2, §3, §4

Salm. typhi 0901 = assay: microbe, parasite or virus in culture; conditions: Salmonella enterica, 18 h; Table III; Salm. typhi 0901
Protocol: as §1, §2, §3, §4

CN1CCN(c2cc3c(cc2F)c(=O)c(C(=O)O)cn3C)CC1 [Example 31, 6-Fluoro-1-methyl-7-(4-methylpiperazinyl)-4-oxo-1,4-dihydro-quinoline-3-carboxylic acid]
MIC (Ps. aeruginosa A.22): 1.6 µg/mL (≈ 5.01 µM)
MIC (Esch. coli 54.127 O.M.S.): 0.8 µg/mL (≈ 2.51 µM)
MIC (B. subtilis): 0.8 µg/mL (≈ 2.51 µM)
MIC (Pr. morganii A.236): 0.2 µg/mL (≈ 0.626 µM)
MIC (Strepto D.M. 19): 3.1 to 6.2 µg/mL (≈ 9.71 to 19.4 µM)
MIC (Arizona 6.211): 0.2 to 0.4 µg/mL (≈ 0.626 to 1.25 µM)
MIC (Klebs. pneum. 10.031): 0.8 µg/mL (≈ 2.51 µM)
MIC (Pr. mirabilis Nig): 0.4 µg/mL (≈ 1.25 µM)
MIC (S. enteritidis Danysz): 0.4 µg/mL (≈ 1.25 µM)
MIC (S. oranienburg 1066): 6.2 to 12.5 µg/mL (≈ 19.4 to 39.1 µM)
MIC (Sh. sonnei I.P.S.): 0.2 to 0.4 µg/mL (≈ 0.626 to 1.25 µM)
MIC (Serratia): 0.2 µg/mL (≈ 0.626 µM)
MIC (Esch. coli 95 I.S.M.): 0.1 µg/mL (≈ 0.313 µM)
MIC (Esch. coli 111 B4): 0.8 µg/mL (≈ 2.51 µM)
MIC (Ps. aeruginosa 72.345): 1.6 µg/mL (≈ 5.01 µM)
MIC (Pr. vulgaris 12-53): 0.2 µg/mL (≈ 0.626 µM)
MIC (Staph. 9.144): 0.4 µg/mL (≈ 1.25 µM)
MIC (Staph. 209 P): 0.4 µg/mL (≈ 1.25 µM)
MIC (Providentia 0223): 0.8 to 1.6 µg/mL (≈ 2.51 to 5.01 µM)
MIC (Bord. bronchis. 4.617): 6.25 µg/mL (≈ 19.6 µM)
MIC (Strepto A 561): 12.5 µg/mL (≈ 39.1 µM)
MIC (Salm. typhi 0901): 0.4 µg/mL (≈ 1.25 µM)

Cn1cc(C(=O)O)c(=O)c2cc(F)c(N3CCNCC3)cc21 [Example 32, 6-fluoro-1-methyl-4-oxo-7-piperazinyl-1,4-dihydro-quinoline-3-carboxylic acid]
MIC (Ps. aeruginosa A.22): 0.8 to 3.12 µg/mL (≈ 2.62 to 10.2 µM)
MIC (Esch. coli 54.127 O.M.S.): 0.2 µg/mL (≈ 0.655 µM)
MIC (B. subtilis): 0.4 µg/mL (≈ 1.31 µM)
MIC (Pr. morganii A.236): 0.2 µg/mL (≈ 0.655 µM)
MIC (Strepto D.M. 19): 12.5 µg/mL (≈ 40.9 µM)
MIC (Arizona 6.211): 0.2 µg/mL (≈ 0.655 µM)
MIC (Klebs. pneum. 10.031): 0.1 µg/mL (≈ 0.328 µM)
MIC (Pr. mirabilis Nig): 0.2 µg/mL (≈ 0.655 µM)
MIC (S. enteritidis Danysz): 0.2 µg/mL (≈ 0.655 µM)
MIC (S. oranienburg 1066): 12.5 µg/mL (≈ 40.9 µM)
MIC (Sh. sonnei I.P.S.): 0.1 µg/mL (≈ 0.328 µM)
MIC (Serratia): 0.2 µg/mL (≈ 0.655 µM)
MIC (Esch. coli 95 I.S.M.): 0.2 µg/mL (≈ 0.655 µM)
MIC (Esch. coli 111 B4): 0.2 µg/mL (≈ 0.655 µM)
MIC (Ps. aeruginosa 72.345): 0.4 to 3.12 µg/mL (≈ 1.31 to 10.2 µM)
MIC (Pr. vulgaris 12-53): 0.2 µg/mL (≈ 0.655 µM)
MIC (Staph. 9.144): 0.8 µg/mL (≈ 2.62 µM)
MIC (Staph. 209 P): 0.8 µg/mL (≈ 2.62 µM)
MIC (Providentia 0223): 1.6 µg/mL (≈ 5.24 µM)
MIC (Bord. bronchis. 4.617): 6.25 µg/mL (≈ 20.5 µM)
MIC (Strepto A 561): 6.2 to 12.5 µg/mL (≈ 20.3 to 40.9 µM)
MIC (Salm. typhi 0901): 0.8 µg/mL (≈ 2.62 µM)
